According to patent US6632960B2, “Diaryliodonium salt catalysts made from iodotoluene and a method for preparing them” (Goldschmidt AG, priority 2002, dated 2003):

Experiments:
[1] = Solution stability of catalyst solutions on storage at 25° C.; assay type: physicochemical; details: Comparison 3: 40 parts catalyst in 60 parts ERL 4221E; listed as iodotoluene catalyst
[2] = Iodonium catalyst solubility studies: time to dissolve to a clear solution at 70° C.; details: Comparison 2: 3 parts by weight catalyst in 100 parts PC-1000 (epoxy siloxane monomer); 2.9 wt. % solution

- Solution Stability (after 14 days @ 25° C.) [1]: remained stable and clear
- Time @ 70° C. (for clear solution) [2]: half and ½ hr.
SMILES: CCCCCCCCCCCCC(O)COc1ccc([I+]c2ccc(C)cc2)cc1 (centres unmarked) [PCX-2519, [4-(2-hydroxy-1-tetradecyloxy)-phenyl] 4-methylphenyliodonium hexafluorophosphate]
